{
  "source": "patent US9248098B2",
  "about": "“Treating or preventing pain using spicamycin derivatives” (DARA BIOSCIENCES, INC., priority 2008, dated 2016)",
  "key": {"[1]": {"tested_on": "patients with end-stage cancer experiencing neuropathic pain", "test": "Phase 2 placebo-controlled study of KRN5500, efficacy on neuropathic pain", "type": "in vivo, human", "details": "for median decrease from baseline in pain intensity, clinic numeric rating scale (NRS) scores: placebo median change zero", "method": "(§1) A Phase 2, multicenter, placebo-controlled, randomized, parallel group study was carried out to evaluate the safety, efficacy, and dose-response of KRN5500 in patients with end-stage cancer experiencing neuropathic pain. Nineteen (19) patients were enrolled in the study. Thirteen were randomized to receive KRN5500 and 6 were randomized to receive placebo. Due to a randomization error at an investigative site, one patient randomized to receive KRN5500 actually received placebo. Of the 12 patients who received KRN5500, 3 (25%) completed all dosing visits. Two (28.6%) of the patients who received placebo completed all dosing visits. No patients were lost to follow up and no patients died.\nThe treatment groups were similar in demographics, with the majority of patients being Caucasian (73.7%) and approximately 50/50 in distribution by gender. The median age of patients enrolled was 62 years, ranging from 41 to 84 years. The average body surface area (BSA) was 1.8 m^2 ranging from 0.95 to 2.27 m^2. The majority of the patient population had allodynia (84.2%). This and other baseline characteristics of neuropathic pain were consistent between the treatment groups.\n(§2) The median duration of exposure to KRN5500 was 40 days compared to 29 days for placebo. On average, KRN5500 patients took 5.3 doses while placebo patients took 4.4 doses. The highest dose received was 2.2 mg/m^2. Seven (58.3%) of KRN5500 patients were exposed to at least one dose at this level, while 4 (57.1%) of Placebo patients were exposed to at least one dose at this level.\nPain intensity, based on clinic numeric rating scale (NRS) scores, was analyzed for both the Intent-to-treat (ITT) and modified efficacy (ME) populations. […] Since more than 80% of patients had allodynia as a baseline characteristic, results from the analysis of the subset of patients with allodynia present at baseline was consistent with the overall analysis. Too few patients presented without allodynia at baseline to adequately draw conclusions in this subset. […] Three (25%) of the KRN5500 treated patients achieved 33% or greater pain decrease and none of the placebo patients achieved this level."}, "[2]": {"tested_on": "patients with end-stage cancer experiencing neuropathic pain", "test": "Phase 2 placebo-controlled study of KRN5500, safety", "type": "in vivo, human", "method": "as §1, §2\nAll patients treated with KRN5500 (100%) had at least one treatment emergent adverse event, compared to 86% (6 of 7 patients) in the Placebo treated group. Events recorded by the KRN5500 patients tended to be more severe (84% moderate or severe in KRN5500 vs. 71% in Placebo). Events were typically gastrointestinal disorders such as nausea or vomiting and were more frequently considered to be related to treatment in the KRN5500 group than in the Placebo group (92% vs. 14%). Three patients (25%) in the KRN5500 group and 1 (14%) patient in the Placebo group experienced serious adverse events (AEs). […] Two patients treated with KRN5500 withdrew from the study due to nausea and vomiting which were thought to be related to study drug. One patient treated with KRN5500 withdrew due to convulsions not thought to be related to study drug. One patient treated with Placebo withdrew from the study due to a stroke not related to study drug."}, "[3]": {"tested_on": "rat models of neuropathic pain", "details": "Abdi et al. 2000; Kobierski et al. 2003; cited from earlier work"}, "[4]": {"details": "brief pain inventory, no change in placebo"}, "[5]": {"details": "neuropathic pain questionnaire, versus placebo"}, "[6]": {"details": "of 12 patients who received KRN5500"}},
  "data": [
    {"smiles": "CCCCCCCCC/C=C/C=C/C(=O)NCC(=O)N[C@@H]1[C@@H](O)[C@@H](O)[C@@H](Nc2ncnc3[nH]cnc23)O[C@H]1[C@@H](O)CO", "note": "[KRN5500, 6-[4-deoxy-4-[(2E,4E)-tetradecadienoylglycyl}amino-L-glycero-β-L-mannoheptopyranosyl]amino-9H-purine]", "values": [
      {"measurement": "aggregated physical and mental SF-12 scores", "setting": "[1]; 1 week post-dose follow up", "result": "basically unchanged from baseline"},
      {"measurement": "dose response at last dose received (Endpoint)", "setting": "[1]; ITT or ME population analysis", "result": "no trend for dose response"},
      {"measurement": "median decrease from baseline in pain intensity, clinic numeric rating scale (NRS) scores", "setting": "[1]; Intent-to-treat (ITT) population", "result": 22, "unit": "%"},
      {"measurement": "significance of decrease in pain intensity (clinic NRS)", "setting": "[1]; Wilcoxon Rank Sum test of the medians, ME analysis, p=0.03", "result": "statistically significant decrease"},
      {"measurement": "dynamic and cold allodynia assessment", "setting": "[1]; affected and unaffected areas, versus placebo", "result": "larger decrease in pain associated with both touch and cold"},
      {"measurement": "BPI: aggregate measure of pain's interference in the last 24 hours", "setting": "[1]; [4]", "result": "decreases from baseline"},
      {"measurement": "BPI: patient perception of pain at its least in the past 24 hours", "setting": "[1]; [4]", "result": "decreases from baseline"},
      {"measurement": "patients with a 20% or greater reduction in pain intensity", "setting": "[1]; diary endpoint, 5 of KRN5500 treated patients, placebo 1 (14%)", "result": 42, "unit": "%"},
      {"measurement": "median decrease from baseline in pain intensity, clinic numeric rating scale (NRS) scores", "setting": "[1]; modified efficacy (ME) population", "result": 23.6, "unit": "%"},
      {"measurement": "NPQ individual questions: burning pain, electric pain and freezing pain", "setting": "[1]; [5]", "result": "decreases from baseline in favor of KRN5500"},
      {"measurement": "NPQ questions: sensitivity to touch, shooting pain, numbness, tingling, or squeezing pain", "setting": "[1]; [5]", "result": "no different between treatment groups"},
      {"measurement": "NPQ: increased pain due to touch or to weather changes", "setting": "[1]; [5]", "result": "no treatment differences"},
      {"measurement": "best pain intensity response (largest decrease in pain) recorded in clinic over all doses, median decrease", "setting": "[1]; placebo showed no decrease", "result": 29.3, "unit": "%"},
      {"measurement": "median decrease in pain intensity based on diary data", "setting": "[1]; placebo showed no decrease", "result": 16.4, "unit": "%"},
      {"measurement": "SPQ: brush/touch induced pain scores", "setting": "[1]; supplemental pain questionnaire", "result": "greater decrease in pain scores than the Placebo treated patients"},
      {"measurement": "SPQ: cold induced pain", "setting": "[1]; supplemental pain questionnaire, at endpoint, both groups decreased", "result": "no treatment differences"},
      {"measurement": "patients achieving 33% or greater pain decrease", "setting": "[1]; three KRN5500 treated patients, none of the placebo patients", "result": 25, "unit": "%"},
      {"measurement": "Karnofsky Performance Status (KPS)", "setting": "[1]; throughout the study, baseline median 75", "result": "did not change throughout the study"},
      {"measurement": "incidence of nausea and vomiting", "setting": "[2]; generally considered related to study drug", "result": "High incidences of nausea and vomiting"},
      {"measurement": "deaths", "setting": "[2]; in vivo", "result": "No deaths were observed"},
      {"measurement": "relation of serious AEs to study drug", "setting": "[2]; in vivo", "result": "None were considered to be related to study drug"},
      {"measurement": "patients withdrawn due to convulsions not thought to be related to study drug", "setting": "[2]; [6]", "result": "One"},
      {"measurement": "patients withdrawn due to nausea and vomiting thought to be related to study drug", "setting": "[2]; [6]", "result": "Two"},
      {"measurement": "adverse events moderate or severe", "setting": "[2]; placebo 71%", "result": 84, "unit": "%"},
      {"measurement": "patients with at least one treatment emergent adverse event", "setting": "[2]; placebo 86% (6 of 7 patients)", "result": 100, "unit": "%"},
      {"measurement": "patients experiencing serious adverse events (AEs)", "setting": "[2]; three patients, placebo 1 (14%)", "result": 25, "unit": "%"},
      {"measurement": "clinically significant laboratory abnormalities, changes in vital signs, physical examinations, or ECGs", "setting": "[2]; throughout the study", "result": "not observed"},
      {"measurement": "adverse events considered to be related to treatment", "setting": "[2]; typically gastrointestinal disorders such as nausea or vomiting, placebo 14%", "result": 92, "unit": "%"},
      {"measurement": "efficacy in rat models of neuropathic pain", "setting": "[3]", "result": "effective"}
    ]}
  ]
}
